Assay results published in article PMC10363032 (Cancer Chemotherapy and Pharmacology, 2023).

Key:
[1] = human, in vivo
Method: (§1) Safety was appraised throughout the study by the assessment of clinical and laboratory adverse events (AEs; graded by Common Terminology Criteria for Adverse Events [CTCAE], version 4.03), physical examination, and evaluation of vital signs and laboratory data (clinical chemistry and hematology).
(§2) Patients were evaluated according to the treatment received.

clinical = settings: human, in vivo, 225 mg
Method: PK parameters were derived using non-compartmental methods with Phoenix® WinNonlin® version 6.4 (Certara, LP, Princeton, NJ, USA). All descriptive and inferential statistical computations were performed using SAS® version 9.1 (SAS Institute, Cary, NC, USA).

[2] = safety and tolerability, adverse events (CTCAE version 4.03) in patients
Method: as §1, §2

[3] = Adavosertib n = 30, Adavosertib + cocktail n = 26

C=CCn1c(=O)c2cnc(Nc3ccc(N4CCN(C)CC4)cc3)nc2n1-c1cccc(C(C)(C)O)n1 [adavosertib]
AEs with an outcome of death [1]: No AEs with an outcome of death were observed
CLss/F, arithmetic mean (SD) (clinical): 38.0 (12.11) L/h
CLss/F, median (minimum, maximum) (clinical): 36.9 (24.3, 63.5) L/h
Tmax (clinical): 3 h
intra-patient variability for AUC0–12 and Cmax (clinical): < 10%
AUC(0-t) (clinical; AUC0–12, arithmetic mean (SD)): 12.7 µM·h
AUC(0-t) (clinical; AUC0–12, geometric mean): 12.2 µM·h
AUC(0-t) (clinical; AUC0–12, median (minimum, maximum)): 12 µM·h
Cmax (clinical; arithmetic mean (SD)): 1490 nM
Cmax (clinical; geometric mean): 1440 nM
Cmax (clinical; median (minimum, maximum)): 1420 nM
Acute kidney injury (causally related), any grade [2, 3]: 1 (3.3) Number of patients (%)
Acute kidney injury (causally related), grade ≥3 [2, 3]: 1 ( 3. 3) Number of patients (%)
Anemia (causally related), any grade [2, 3]: 0 Number of patients (%)
Anemia (causally related), grade ≥3 [2, 3]: 0 Number of patients (%)
Any AE (causally related), any grade [2, 3]: 11 (36.7) Number of patients (%)
Any AE (causally related), grade ≥3 [2, 3]: 4 (13.3) Number of patients (%)
Blood and lymphatic system disorders (causally related), any grade [2, 3]: 2 ( 6. 7) Number of patients (%)
Blood and lymphatic system disorders (causally related), grade ≥3 [2, 3]: 1 (3.3) Number of patients (%)
Blood creatinine increased (causally related), any grade [2, 3]: 0 Number of patients (%)
Blood creatinine increased (causally related), grade ≥3 [2, 3]: 0 Number of patients (%)
Decreased appetite (causally related), any grade [2, 3]: 0 Number of patients (%)
Decreased appetite (causally related), grade ≥3 [2, 3]: 0 Number of patients (%)
Dehydration (causally related), any grade [2, 3]: 1 (3.3) Number of patients (%)
Dehydration (causally related), grade ≥3 [2, 3]: 1 (3.3) Number of patients (%)
Diarrhea (causally related), any grade [2, 3]: 10 (33.3) Number of patients (%)
Diarrhea (causally related), grade ≥3 [2, 3]: 3 (10.0) Number of patients (%)
Dizziness (causally related), any grade [2, 3]: 0 Number of patients (%)
Dizziness (causally related), grade ≥3 [2, 3]: 0 Number of patients (%)
Fatigue (causally related), any grade [2, 3]: 0 Number of patients (%)
Fatigue (causally related), grade ≥3 [2, 3]: 0 Number of patients (%)
Flushing (causally related), any grade [2, 3]: 0 Number of patients (%)
Flushing (causally related), grade ≥3 [2, 3]: 0 Number of patients (%)
Gastrointestinal disorders (causally related), any grade [2, 3]: 11 (36.7) Number of patients (%)
Gastrointestinal disorders (causally related), grade ≥3 [2, 3]: 3 (10.0) Number of patients (%)
General disorders and administration site conditions (causally related), any grade [2, 3]: 0 Number of patients (%)
General disorders and administration site conditions (causally related), grade ≥3 [2, 3]: 0 Number of patients (%)
Hypokalemia (causally related), any grade [2, 3]: 1 (3.3) Number of patients (%)
Hypokalemia (causally related), grade ≥3 [2, 3]: 1 (3.3) Number of patients (%)
Investigations (causally related), any grade [2, 3]: 2 (6.7) Number of patients (%)
Investigations (causally related), grade ≥3 [2, 3]: 0 Number of patients (%)
Metabolism and nutrition disorders (causally related), any grade [2, 3]: 2 (6.7) Number of patients (%)
Metabolism and nutrition disorders (causally related), grade ≥3 [2, 3]: 2 ( 6. 7) Number of patients (%)
Muscle spasms (causally related), any grade [2, 3]: 0 Number of patients (%)
Muscle spasms (causally related), grade ≥3 [2, 3]: 0 Number of patients (%)
Musculoskeletal and connective tissue disorders (causally related), any grade [2, 3]: 0 Number of patients (%)
Musculoskeletal and connective tissue disorders (causally related), grade ≥3 [2, 3]: 0 Number of patients (%)
Nasal ulcer (causally related), any grade [2, 3]: 0 Number of patients (%)
Nasal ulcer (causally related), grade ≥3 [2, 3]: 0 Number of patients (%)
Nausea (causally related), any grade [2, 3]: 3 (10.0) Number of patients (%)
Nausea (causally related), grade ≥3 [2, 3]: 1 (3.3) Number of patients (%)
Nervous system disorders (causally related), any grade [2, 3]: 0 Number of patients (%)
Nervous system disorders (causally related), grade ≥3 [2, 3]: 0 Number of patients (%)
Neutropenia (causally related), any grade [2, 3]: 1 (3.3) Number of patients (%)
Neutropenia (causally related), grade ≥3 [2, 3]: 1 (3.3) Number of patients (%)
Pancreatitis (causally related), any grade [2, 3]: 1 (3.3) Number of patients (%)
Pancreatitis (causally related), grade ≥3 [2, 3]: 1 (3.3) Number of patients (%)
Renal and urinary disorders (causally related), any grade [2, 3]: 1 (3.3) Number of patients (%)
Renal and urinary disorders (causally related), grade ≥3 [2, 3]: 1 (3.3) Number of patients (%)
Respiratory, thoracic and mediastinal disorders (causally related), any grade [2, 3]: 0 Number of patients (%)
Respiratory, thoracic and mediastinal disorders (causally related), grade ≥3 [2, 3]: 0 Number of patients (%)
Stomatitis (causally related), any grade [2, 3]: 0 Number of patients (%)
Stomatitis (causally related), grade ≥3 [2, 3]: 0 Number of patients (%)
Thrombocytopenia (causally related), any grade [2, 3]: 1 (3.3) Number of patients (%)
Thrombocytopenia (causally related), grade ≥3 [2, 3]: 0 Number of patients (%)
Vascular disorders (causally related), any grade [2, 3]: 0 Number of patients (%)
Vascular disorders (causally related), grade ≥3 [2, 3]: 0 Number of patients (%)
Vomiting (causally related), any grade [2, 3]: 6 (20.0) Number of patients (%)
Vomiting (causally related), grade ≥3 [2, 3]: 1 (3.3) Number of patients (%)
Weight decreased (causally related), any grade [2, 3]: 2 (6.7) Number of patients (%)
Weight decreased (causally related), grade ≥3 [2, 3]: 0 Number of patients (%)
Acute kidney injury (causally related), any grade ([2]; Total (n = 30)): 1 (3.3) Number of patients (%)
Acute kidney injury (causally related), grade ≥3 ([2]; Total (n = 30)): 1 (3.3) Number of patients (%)
Anemia (causally related), any grade ([2]; Total (n = 30)): 1 (3.3) Number of patients (%)
Anemia (causally related), grade ≥3 ([2]; Total (n = 30)): 1 (3.3) Number of patients (%)
Any AE (causally related), any grade ([2]; Total (n = 30)): 19 (63.3) Number of patients (%)
Any AE (causally related), grade ≥3 ([2]; Total (n = 30)): 6 (20.0) Number of patients (%)
